Data on 19 compounds can be found in US20070099915A1, “INHIBITORS OF THE HIV INTEGRASE ENZYME” (PFIZER INC., priority 2005, published 2007).

Read-outs that look alike come from different tables or passages of the source.

The target of test [1] is T1, Full-length wild type HIV-1 integrase (SF1) (Human immunodeficiency virus type 1 group M subtype B, UniProt P04585).
T1 construct: made in house; host or cells: E. coli BL21 (DE3)
The test is described as follows: Integrase strand-transfer scintillation proximity assay. The class given is biochemical. The text has this:
The annealed product represents preprocessed viral ds-DNA derived from the LTR U5 sequence of the viral genome. A ds-DNA control to test for non-specific interactions was made using a 3′ di-deoxy derivative of oligonucleotide #1 annealed to oligonucleotide #2. The CA overhang at the 5′ end of the non-biotinylated strand of the ds-DNA was created artificially by using a complimentary DNA oligonucleotide shortened by 2 base pairs. This configuration eliminates the requisite 3′ processing step of the integrase enzyme prior to the strand-transfer mechanism.
The annealed product had overhanging 3′ ends of poly(dA). […] The radiolabeled product was purified using a NENSORB cartridge and stored in stabilized aqueous solution (PerkinElmer).
Reagents: Streptavidin-coated polyvinyltoluene (PVT) SPA beads were purchased from Amersham Biosciences (Piscataway, N.J.). Cesium chloride was purchased from Shelton Scientific, Inc. (Shelton, Conn.). White, polystyrene, flat-bottom, non-binding surface, 96-well plates were purchased from Corning. All other buffer components were purchased from Sigma (St. Louis, Mo.) unless otherwise indicated.
Enzyme Construction: Full-length wild type HIV-1 integrase (SF1) sequence (amino acids 1-289) was constructed in a pET24a vector (Novagen, Madison, Wis.).
Enzyme Purification: Full length wild-type HIV Integrase was expressed in E. coli BL21 (DE3) cells and induced with 1 mM isopropyl-1 thio-β-D-galactopyranoside (IPTG) when cells reached an optical density between 0.8-1.0 at 600 nm. Cells were lysed by microfluidation in 50 mM HEPES pH 7.0, 75 mM NaCl, 5 mM DTT, 1 mM 4-(2-Aminoethyl)benzenesulfonylfluoride HCl (AEBSF). Lysate was then centrifuged 20 minutes at 11 k rpm in GSA rotor in Sorvall RC-5B at 4° C. Supernant was discarded and pellet resuspended in 50 mM HEPES pH 7.0, 750 mM NaCl, 5 mM DTT, 1 mM AEBSF and homogenized in a 40 mL Dounce homogenizer for 20 minutes on ice. Homogenate was then centrifuged 20 minutes at 11 k rpm in SS34 rotor in Sorvall RC-5B at 4° C. Supernant was discarded and pellet resuspended in 50 mM HEPES pH 7.0, 750 mM NaCl, 25 mM CHAPS, 5 mM DTT, 1 mM AEBSF. Preparation was then centrifuged 20 minutes at 11 k rpm in SS34 rotor in Sorvall RC-5B at 4° C.
Supernant was then diluted 1:1 with 50 mM HEPES pH 7.0, 25 mM CHAPS, 1 mM DTT, 1 mM AEBSF and loaded onto a Q-Sepharose column pre-equilibrated with 50 mM HEPES, pH 7.0, 375 mM NaCl, 25 mM CHAPS, 1 mM DTT, 1 mM AEBSF. The flow through peak was collected and NaCl diluted to 0.1 M with 50 mM HEPES pH 7.0, 25 mM CHAPS, 1 mM DTT, 0.5 mM AEBSF and loaded onto a SP-Sepharose column pre-equilibrated with 50 mM HEPES pH 7.0, 100 mM NaCl, 25 mM CHAPS, 1 mM DTT, 0.5 mM AEBSF. After washing the column with the equilibration buffer, a 100 to 400 mM NaCl gradient was run. The eluted integrase was concentrated and run on a S-300 gel diffusion column using 50 mM HEPES pH 7.0, 500 mM NaCl, 25 mM CHAPS, 1 mM DTT, 0.5 mM AEBSF. […] All columns were run in a 4° C. cold room.
Viral DNA Bead Preparation: Streptavidin-coated SPA beads were suspended to 20 mg/mL in 25 mM 3-morpholinopropanesulfonic acid (MOPS) (pH 7.2) and 1.0% NaN3. Biotinylated viral DNA was bound to the hydrated SPA beads in a batch process by combining […] of ds-DNA to 1 mg of suspended SPA beads (10 μL of 50 μM viral DNA to 1 mL of 20 mg/mL SPA beads). The mixture was incubated at 22° C. for a minimum of 20 min. with occasional mixing followed by centrifugation at 2500 rpm for 10 min.

For test [2], the system named is HIV-1 RF virus in CEM-SS cells. The test is described as follows: HIV-1 cell protection assay (XTT dye reduction). Format: cell-based. On the procedure: Six days later, 50 μl of XTT solution (1 mg/ml XTT tetrazolium and 20 nM phenazine methosulfate) were added to the wells and the plates were reincubated for four hours. Viability, as determined by the amount of XTT formazan produced, was quantified spectrophotometrically by absorbance at 450 nm.
Data from CPE assays were expressed as the percent of formazan produced in compound-treated cells compared to formazan produced in wells of uninfected, compound-free cells. […] The 50% cytotoxicity concentration (CC50) was calculated as the concentration of compound that decreased the percentage of formazan produced in uninfected, compound-treated cells to 50% of that produced in uninfected, compound-free cells. The therapeutic index was calculated by dividing the cytotoxicity (CC50) by the antiviral activity (EC50).
A general note: Formazan colour is commonly taken as a measure of viable cells.

Setting [3] is: strand-transfer SPA, 246 nM integrase, 50 nM host DNA, 37° C., 50 min, read-out: IC50.
Setting [4] is: Human immunodeficiency virus 1, 144 h, RF strain of HIV-1, CEM-SS cells, XTT read-out after six days, read-out: EC50.
Where [5] appears, read: Human immunodeficiency virus 1, CEM-SS, 144 h.

In general, IC50 refers to the midpoint of a concentration-inhibition curve. The EC50 is the concentration giving half of the maximal effect. For `O=C1c2ncc3c(c(COCC4CCC4)cn3Cc3ccc(F)cc3)c2CCN1O` [Example 79, 1-[(cyclobutylmethoxy)methyl]-3-(4-fluorobenzyl)-7-hydroxy-3,7,8,9-tetrahydro-6H-pyrrolo[2,3-c]-1,7-naphthyridin-6-one], in test [1] (setting [3]), the 50% inhibitory concentration (IC50) came out at 10 nM. For the same compound, the EC50 in test [2] (setting [4]) came to 1 nM.

Take `CN(C)C(=O)c1cccc(-c2cn(Cc3ccc(F)cc3)c3cnc4c(=O)n(O)ccc4c23)c1` [Example 8, 3-[3-(4-fluorobenzyl)-7-hydroxy-6-oxo-6,7-dihydro-3H-pyrrolo[2,3-c]-1,7-naphthyridin-1-yl]-N,N-dimethylbenzamide]: the IC50 in test [1] (setting [3]) came to 37 nM. Also, the EC50 in test [2] (setting [4]) came to 5 nM.

`O=c1c2ncc3c(c(COCCOCc4ccccc4)cn3Cc3ccc(F)cc3)c2ccn1O` [Example 92, 1-{[2-(benzyloxy)ethoxy]methyl}-3-(4-fluorobenzyl)-7-hydroxy-3,7-dihydro-6H-pyrrolo[2,3-c]-1,7-naphthyridin-6-one]: in test [1] (setting [3]), the concentration for half-maximal inhibition (IC50) worked out at 3 nM. Also, the 50% effective concentration (EC50) in test [2] (setting [4]) stood at 10 nM.

In turn, `Cc1cc2c(ncc3c2c(CO)cn3Cc2ccc(F)cc2)c(=O)n1O` [Example 47, 3-(4-fluorobenzyl)-7-hydroxy-1-(hydroxymethyl)-8-methyl-3,7-dihydro-6H-pyrrolo[2,3-c]-1,7-naphthyridin-6-one] displayed an IC50 in test [1] of 6 nM. The same compound gave an EC50 in test [2] (setting [5]) of 0.39 nM.

Regarding `CN(CCCc1cn(Cc2ccc(F)cc2)c2cnc3c(c12)CCN(O)C3=O)CC1CCOCC1` [Example 105, 3-(4-fluorobenzyl)-7-hydroxy-1-{3-[methyl(tetrahydro-2H-pyran-4-ylmethyl)amino]propyl}-3,7,8,9-tetrahydro-6H-pyrrolo[2,3-c]-1,7-naphthyridin-6-one], in test [1] (setting [3]), the IC50 was 24 nM. Besides, the concentration giving a half-maximal response (EC50) in test [2] (setting [4]) turned out to be 16 nM.

On to `COC(C)(C)CCc1cn(Cc2ccc(F)cc2)c2cnc3c(c12)CCN(O)C3=O` [Example 121, 3-(4-fluorobenzyl)-7-hydroxy-1-(3-methoxy-3-methylbutyl)-3,7,8,9-tetrahydro-6H-pyrrolo[2,3-c]-1,7-naphthyridin-6-one], for which, in test [1] (setting [3]), the 50% inhibitory concentration (IC50) amounted to 14 nM. For the same compound, the concentration giving a half-maximal response (EC50) in test [2] (setting [4]) amounted to 0.4 nM.

For `O=C1c2ncc3c(c(CN4CCCC(F)(F)C4)cn3Cc3ccc(F)cc3)c2CCN1O` [Example 39], the concentration for half-maximal inhibition (IC50) in test [1] (setting [3]) is 10.3 nM. In addition, in test [2] (setting [4]), the concentration for a half-maximal effect (EC50) was 0.279 nM.

In the case of `CN(C1CCCC1)S(=O)(=O)c1cn(Cc2ccc(F)cc2)c2cnc3c(c12)CCN(O)C3=O` [Example 21, N-cyclopentyl-3-(4-fluorobenzyl)-7-hydroxy-N-methyl-6-oxo-6,7,8,9-tetrahydro-3H-pyrrolo[2,3-c]-1,7-naphthyridine-1-sulfonamide], the IC50 in test [1] (setting [3]) was 905 nM. The EC50 in test [2] (setting [4]) turned out to be 120 nM.

Regarding `CN(Cc1cn(Cc2ccc(F)cc2)c2cnc3c(c12)CCN(O)C3=O)C1CCCOC1` (centres unmarked) [Example 50, 3-(4-fluorobenzyl)-7-hydroxy-1-{[methyl(tetrahydro-2H-pyran-3-yl)amino]methyl}-3,7,8,9-tetrahydro-6H-pyrrolo[2,3-c]-1,7-naphthyridin-6-one], in test [1] (setting [3]), the IC50 turned out to be 11.9 nM. Further, the EC50 in test [2] (setting [4]) is 1.8 nM.

Consider `O=C1c2ncc3c(c(CCN4CCC(F)(F)C4)cn3Cc3ccc(F)cc3)c2CCN1O` [Example 109, 3-(4-fluorobenzyl)-1-(2-(3,3-difluoropyrrolidin-1-yl)ethyl)-7-hydroxy-8,9-dihydro-3H-pyrrolo[2,3-c][1,7]naphthyridin-6(7H)-one], for which the IC50 in test [1] (setting [3]) is 14 nM. Besides, the 50% effective concentration (EC50) in test [2] (setting [4]) turned out to be 1 nM.

On to `C[C@@H]1CN(Cc2cn(Cc3ccc(F)cc3)c3cnc4c(c23)CCN(O)C4=O)C[C@H](C)O1` [Example 45, 1-{[(2R,6S)-2,6-dimethylmorpholin-4-yl]methyl}-3-(4-fluorobenzyl)-7-hydroxy-3,7,8,9-tetrahydro-6H-pyrrolo[2,3-c]-1,7-naphthyridin-6-one], for which the half-inhibitory concentration (IC50) in test [1] (setting [3]) turned out to be 9.07 nM. Besides, the EC50 in test [2] (setting [4]) worked out at 0.45 nM.

Take `CN(CCCc1cn(Cc2ccc(F)cc2)c2cnc3c(c12)CCN(O)C3=O)Cc1ccccn1` [Example 122, 3-(4-fluorobenzyl)-7-hydroxy-1-{3-[methyl(pyridin-2-ylmethyl)amino]propyl}-3,7,8,9-tetrahydro-6H-pyrrolo[2,3-c]-1,7-naphthyridin-6-one]: in test [1] (setting [3]), the IC50 is 26 nM. Also, in test [2] (setting [4]), the concentration giving a half-maximal response (EC50) was determined as 5 nM.

As for `COC1CCN(C(=O)c2cn(Cc3ccc(F)cc3)c3cnc4c(c23)CCN(O)C4=O)CC1` [Example 15, 3-(4-fluorobenzyl)-7-hydroxy-1-[(4-methoxypiperidin-1-yl)carbonyl]-3,7,8,9-tetrahydro-6H-pyrrolo[2,3-c]-1,7-naphthyridin-6-one], in test [1] (setting [3]), the IC50 is 14 nM. Also, in test [2] (setting [5]), the EC50 came to 28 nM.

On to `O=C1c2ncc3c(c(CO)cn3Cc3ccc(F)cc3)c2CCN1O` [Example 25, 3-(4-fluorobenzyl)-7-hydroxy-1-(hydroxymethyl)-3,7,8,9-tetrahydro-6H-pyrrolo[2,3-c]-1,7-naphthyridin-6-one], for which, in test [1], inhibition was half-maximal at 12 nM (IC50). This compound came in with an EC50 in test [2] (setting [5]) of 3 nM.

For `N#Cc1ccc(Cn2ccc3c4c(ncc32)C(=O)N(O)CC4)cc1` [Example 86, 4-[(7-hydroxy-6-oxo-6,7,8,9-tetrahydro-3H-pyrrolo[2,3-c]-1,7-naphthyridin-3-yl)methyl]benzonitrile], in test [1] (setting [3]), the half-maximal inhibitory concentration (IC50) is 108 nM. In addition, in test [2] (setting [4]), the EC50 was 27 nM.

`COCCCc1cn(Cc2ccc(F)cc2)c2cnc3c(c12)CCN(O)C3=O` [Example 94, 3-(4-fluorobenzyl)-7-hydroxy-1-(3-methoxypropyl)-3,7,8,9-tetrahydro-6H-pyrrolo[2,3-c]-1,7-naphthyridin-6-one]: the 50% inhibitory concentration (IC50) in test [1] (setting [3]) came out at 12 nM. Moreover, the concentration giving a half-maximal response (EC50) in test [2] (setting [4]) came out at 0.25 nM.

For `O=C1c2ncc3c(c(CN4CCCCCC4)cn3Cc3ccc(F)cc3)c2CCN1O` [Example 98, 1-(azepan-1-ylmethyl)-3-(4-fluorobenzyl)-7-hydroxy-3,7,8,9-tetrahydro-6H-pyrrolo[2,3-c]-1,7-naphthyridin-6-one], the half-inhibitory concentration (IC50) in test [1] (setting [3]) came to 38 nM. The 50% effective concentration (EC50) in test [2] (setting [4]) was determined as 13 nM.

Take `O=C1c2ncc3c(c(C(=O)N4CCCC4)cn3Cc3ccc(F)cc3)c2CCN1O` [Example 14, 3-(4-fluorobenzyl)-7-hydroxy-1-(pyrrolidin-1-ylcarbonyl)-3,7,8,9-tetrahydro-6H-pyrrolo[2,3-c]-1,7-naphthyridin-6-one]: the IC50 in test [1] (setting [3]) is 16 nM. In test [2] (setting [5]), this compound displayed a concentration giving a half-maximal response (EC50) of 7 nM.

Turning to `CN(CCc1cn(Cc2ccc(F)cc2)c2cnc3c(c12)CCN(O)C3=O)C1CCOCC1` [Example 108, 3-(4-fluorobenzyl)-7-hydroxy-1-(2-(methyl(tetrahydro-2H-pyran-4-yl)amino)ethyl)-8,9-dihydro-3H-pyrrolo[2,3-c][1,7]naphthyridin-6(7H)-one], in test [1] (setting [3]), the half-inhibitory concentration (IC50) was determined as 21 nM. For the same compound, the concentration for a half-maximal effect (EC50) in test [2] (setting [4]) is 16 nM.
